Legend:
human ENT1 = molecular target: T1, human ENT1 (Homo sapiens, UniProt Q99808); experiment: ENT1 binding assay (competition with Sahenta-DY647 on JAR cells); details: competition with SAHENTA-DY647 binding; IC50 categorized; read-out: Binding Assay IC50
T1 construct: JAR cells expressing ENT1 were purchased from ATCC; host or cells: JAR cells
T1 sequence (Q99808 1-456): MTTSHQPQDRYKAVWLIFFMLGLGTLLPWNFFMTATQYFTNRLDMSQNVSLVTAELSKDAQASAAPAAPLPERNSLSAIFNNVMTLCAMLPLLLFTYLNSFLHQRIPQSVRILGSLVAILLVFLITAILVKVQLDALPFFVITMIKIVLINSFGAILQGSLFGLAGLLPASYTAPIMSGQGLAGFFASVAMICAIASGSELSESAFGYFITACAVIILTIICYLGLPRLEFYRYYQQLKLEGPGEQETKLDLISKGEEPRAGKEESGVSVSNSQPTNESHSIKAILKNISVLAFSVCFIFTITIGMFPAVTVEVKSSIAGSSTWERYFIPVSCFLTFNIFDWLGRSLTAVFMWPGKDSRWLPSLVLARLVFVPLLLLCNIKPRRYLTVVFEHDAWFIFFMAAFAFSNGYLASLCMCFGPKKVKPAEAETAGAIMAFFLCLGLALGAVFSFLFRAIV
How it was run: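 Whole-cell competition on JAR cells (native ENT1): 50,000 cells pre-incubated 30 min at 4 °C with compound in HBSS/10 mM Hepes/0.1% BSA, then 100 nM Sahenta-DY647 added for 30 min at 4 °C. After washing, fluorescence (Ex 630/Em 670 nm) read; IC50 from sigmoidal fit, averaged as pIC50.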

[1] = system: stimulated primary human T cells; experiment: T cell proliferation assay, Condition A (X-VIVO15); format: cell-based; details: Homo sapiens, T-cell, 96 h; Condition A: X-VIVO15 medium; anti-CD3/anti-CD28 beads, ATP, 4 days; CFSE-lo T cells
Experimental: (§1) The goal of this study was to determine the potency of ENT1 inhibitors by measuring the rescued proliferation of stimulated primary human T cells incubated in the presence of 100 uM Adenosine triphosphate (ATP), in baseline conditions (condition A) or in the presence of various proteins known to bind small molecules (condition B).
(§2) Venous blood from healthy volunteers, all of whom signed an informed consent approved by the Ethics Committee (FOR—UIC—BV-050-01-01 ICF_HBS_HD Version 5.0), was obtained by ImmuneHealth (Centre Hospitalier Universitaire Tivoli, La Louviere, Belgium). Mononuclear cells were collected by density gradient centrifugation, using SepMate-50 tubes (StemCell Technologies, Grenoble, France) and Lymphoprep (Stemcell Technologies) according to the manufacturer's instructions. CD3+ T cells were isolated by immunomagnetic negative selection, using the EasySep Human T Cell Isolation Kit (StemCell Technologies) as per the manufacturer's instructions. CD3+ T cells were stored in heat inactivated FBS (hiFBS; Gibco, ThermoFisher Scientific, Merelbeke, Belgium) and 10% DMSO in liquid nitrogen.
(§3) Purified human CD3+ T cells were thawed and washed once with RPMI1640 medium, UltraGlutamine (Lonza, Verviers, Belgium) containing 10% hiFBS. Cells were resuspended in PBS containing 10% hiFBS at 1×10^7 cells/ml. One volume of cells was combined with a matching volume of 2 μM CFSE solution in PBS, mixed well by pipetting, and incubated at room temperature for 5 minutes under rotation and protected from light. Excess CFSE was quenched by addition of PBS containing 10% hiFBS, and the cells were centrifuged (300×rcf, 7 minutes) and resuspended in X-VIVO15. Cells were again centrifuged and resuspended in X-VIVO15 for counting.
(§4) Cells were resuspended at 1.6×10^6 cells/mL in X-VIVO15 medium (Condition A) or X-VIVO15 medium containing 4% (v/v) HSA (Sigma-Aldrich, Diegem, Belgium) and 0.2% (v/v) ai-Acid Glycoprotein (Sigma-Aldrich, Diegem, Belgium) (Condition B).
(§5) […] of cell suspension (2×10^4 cells) was added to wells of sterile flat-bottom 384-well plates. Cells were activated by adding […] of anti-CD3 anti-CD28 coated microbeads (Dynabeads human T-activator CD3/CD28; Life Technologies, Paisley, UK) suspended in X-VIVO15 medium or X-VIVO15 medium containing 4% (v/v) HSA and 0.2% (v/v) ai-Acid Glycoprotein at a ratio of one microbead per two cells. Serial dilutions of the ENT1 inhibitors were conducted in X-VIVO15 medium and […] of the diluent was added to the wells. Cells were mixed by pipetting up and down and pre-incubated for 30 minutes in a 37° C. humidified tissue culture incubator with 5% CO2. After pre-incubation, cells were cultured in the presence or absence of ATP (Sigma-Aldrich) at a final concentration of […]. The final well volume was 50 μl in all cases. Experiments were performed in biological duplicates. Cells were mixed by pipetting up and down and incubated for 4 days in a 37° C. humidified tissue culture incubator with 5% CO2.
(§6) Samples were run on a BD LSR Fortessa FACS machine (BD FACSDiva Software v9.0.1). Data were analyzed using FlowJo (BD, v10.7.1). T cell proliferation was determined by measuring the frequency of ‘CFSE^lo’ (i.e. CFSE-diluted).
(§7) T cell proliferation data were analyzed using FlowJo software (Version 10.6.2). Dead cells and cellular debris were excluded on the basis of forward and side scatter profile and singlet cells were selected for further analysis.
(§8) T cell proliferation was determined based on the percent CFSE^lo total T cells for each condition. The data were plotted on the y-axis against log molar (M) concentration of ENT1 inhibitors on the x-axis in GraphPad Prism (version 9.0.0). IC50 and IC90 values were generated with the ‘log(agonist) vs. response—Find ECanything(F))’ function with F constrained to 50 or 90, respectively. pICF values were generated by taking the −logECF values.

[2] = system: stimulated primary human T cells; experiment: T cell proliferation assay, Condition B (X-VIVO15, 2% HSA and 0.1% AAG); format: cell-based; details: Homo sapiens, T-cell, 96 h; Condition B: X-VIVO15 medium containing HSA and α1-Acid Glycoprotein; anti-CD3/anti-CD28 beads, ATP, 4 days; CFSE-lo T cells
Experimental: as §1
Condition B: X-VIVO15, 2% Human Serum Albumin (HSA) and 0.1% α-1-Acid Glycoprotein (AAG)
as §2, §3, §4, §5, §6, §7, §8

`C[C@H]1O[C@@H](n2c(NCCO)nc3c(OCc4ccc([N+](=O)[O-])cc4)ncnc32)[C@H](O)[C@@H]1O` [Compound 21] gave an IC50 (human ENT1) of 0.001 to 0.02 µM, an IC50 [1] of 0.001 to 0.02 µM and an IC50 [2] of 0.02 to 0.5 µM.
`C[C@H]1O[C@@H](n2c(NC3CCC(F)(F)CC3)nc3c(OCc4ccc([N+](=O)[O-])cc4)ncnc32)[C@H](O)[C@@H]1O` [Compound 10] gave an IC50 (human ENT1) of 0.001 to 0.02 µM, an IC50 [1] of under 0.001 µM and an IC50 [2] of 0.001 to 0.02 µM.
Work on `C[C@H]1O[C@@H](n2c(N[C@@H]3CCOC3)nc3c(OCc4ccc(C#N)cc4)ncnc32)[C@H](O)[C@@H]1O` [Compound 77] yielded an IC50 (human ENT1) of 0.001 to 0.02 µM, an IC50 [1] of under 0.001 µM and an IC50 [2] of 0.02 to 0.5 µM.
Work on `CC(=O)N1CCC(Nc2nc3c(OCc4ccc(OC(F)F)cc4)ncnc3n2[C@@H]2O[C@H](C)[C@@H](O)[C@H]2O)CC1` [Compound 79] yielded an IC50 (human ENT1) of under 0.001 µM, an IC50 [1] of under 0.001 µM and an IC50 [2] of 0.001 to 0.02 µM.
Molecule `C[C@H]1O[C@@H](n2cnc3c(N4CCc5cc([N+](=O)[O-])ccc5C4)ncnc32)[C@H](O)[C@@H]1O` [Compound 196] has an IC50 (human ENT1) of 0.02 to 0.5 µM, an IC50 [1] of 0.001 to 0.02 µM and an IC50 [2] of over 0.5 µM.
With `CC(=O)NC[C@H]1O[C@@H](n2cnc3c(SCc4ccc([N+](=O)[O-])cc4)ncnc32)[C@H](O)[C@@H]1O` [Compound 189] the IC50 (human ENT1) was 0.02 to 0.5 µM, the IC50 [1] was 0.001 to 0.02 µM and the IC50 [2] was over 0.5 µM.
`C[C@H]1O[C@@H](n2c(OCc3ccccc3)nc3c(OCc4ccc([N+](=O)[O-])cc4)ncnc32)[C@H](O)[C@@H]1O` [Compound 2] showed an IC50 (human ENT1) of 0.001 to 0.02 µM, an IC50 [1] of under 0.001 µM and an IC50 [2] of 0.02 to 0.5 µM.
Molecule `C[C@H]1O[C@@H](n2cnc3c(SCc4ccc(OC(F)F)cc4)ncnc32)[C@H](O)[C@@H]1O` [Compound 176] has an IC50 (human ENT1) of 0.02 to 0.5 µM, an IC50 [1] of 0.001 to 0.02 µM and an IC50 [2] of over 0.5 µM.
In the case of `C[C@H]1O[C@@H](n2c(NCC3CCOC3)nc3c(OCc4ccc(OC(F)F)cc4)ncnc32)[C@H](O)[C@@H]1O` (stereo partly drawn) [Compound 112], the IC50 (human ENT1) is reported as 0.001 to 0.02 µM, the IC50 [1] is reported as under 0.001 µM and the IC50 [2] is reported as 0.02 to 0.5 µM.
`C[C@H]1O[C@@H](n2c(NC3CCC(O)CC3)nc3c(OCc4ccc(OC(F)F)cc4)ncnc32)[C@H](O)[C@@H]1O` (stereo partly drawn) [Compound 53] gave an IC50 (human ENT1) of under 0.001 µM, an IC50 [1] of under 0.001 µM and an IC50 [2] of 0.001 to 0.02 µM.
For `C[C@H]1O[C@@H](n2c(NCCC3CCN(C)CC3)nc3c(OCc4ccc([N+](=O)[O-])cc4)ncnc32)[C@H](O)[C@@H]1O` [Compound 34], the IC50 (human ENT1) was 0.02 to 0.5 µM, the IC50 [1] was 0.001 to 0.02 µM and the IC50 [2] was 0.02 to 0.5 µM.
`C[C@H]1O[C@@H](n2cnc3c(OCc4ccc(OC(F)F)cc4)nc(N)nc32)[C@H](O)[C@@H]1O` [Compound 190] was tested, and the IC50 (human ENT1) was 0.02 to 0.5 µM, the IC50 [1] was 0.001 to 0.02 µM and the IC50 [2] was over 0.5 µM.
Molecule `C[C@H]1O[C@@H](n2c(NCc3cnn(C)c3)nc3c(OCc4ccc(C#N)cc4)ncnc32)[C@H](O)[C@@H]1O` [Compound 65] has an IC50 (human ENT1) of 0.001 to 0.02 µM, an IC50 [1] of 0.001 to 0.02 µM and an IC50 [2] of 0.02 to 0.5 µM.
Molecule `C[C@H]1O[C@@H](n2cnc3c(SCc4ccc(C#N)cc4)ncnc32)[C@H](O)[C@@H]1O` [Compound 165] has an IC50 (human ENT1) of 0.02 to 0.5 µM, an IC50 [1] of 0.001 to 0.02 µM and an IC50 [2] of over 0.5 µM.
